Converted amounts (≈) assume the structure as drawn. Like-named read-outs stand apart in the source and are kept apart here.
How the values were obtained:
S. aureus = assay: Antibacterial activity (MIC), whole-cell bacterial growth inhibition; type: cell-based, Staphylococcus aureus; conditions: for MIC: Staphylococcus aureus
From the text: Antibacterial activity as measured by the minimal inhibitory concentrations (MIC) and minimal bactericidal concentrations of compounds are well known (see., e.g., National Committee for Clinical Laboratory Standards 2000 Performance standards for antimicrobial disk susceptibility tests: approved standard, 7th ed. M2-A7, vol. 20, no. 1, Committee for Clinical Laboratory Standards, Wayne, Pa.) In vitro testing for antibacterial activity may be accomplished through use of a whole-cell bacterial growth inhibition assay. For example, an […] assay identifies a substance that inhibits bacterial growth. Microtiter plates are prepared with serial dilutions of the test compound, adding to the preparation a given amount of growth substrate, and providing a preparation of bacteria. Inhibition of bacterial growth is determined, for example, by observing changes in optical densities of the bacterial cultures. Inhibition of bacterial growth is determined, for example, by comparing (in the presence and absence of a test compound) the rate of growth or the absolute growth of bacterial cells. Inhibition includes a reduction of one of the above measurements by at least 20%.

human DHFR = human DHFR (Homo sapiens (Human), UniProt P00374); assay: DHFR enzymatic inhibition (Ki), human DHFR; type: biochemical
S. aurues DHFR = S. aurues DHFR (Staphylococcus aureus, UniProt P0A017); assay: biochemical; type: biochemical; conditions: S. aureus DHFR
[1] = S. aureus in 20% serum, read-out: MIC in μg/ml S. aureus in 20% serum
[2] = S. aureus, read-out: MIC in μg/ml S. aureus

Chain of human DHFR (P00374 whole entry): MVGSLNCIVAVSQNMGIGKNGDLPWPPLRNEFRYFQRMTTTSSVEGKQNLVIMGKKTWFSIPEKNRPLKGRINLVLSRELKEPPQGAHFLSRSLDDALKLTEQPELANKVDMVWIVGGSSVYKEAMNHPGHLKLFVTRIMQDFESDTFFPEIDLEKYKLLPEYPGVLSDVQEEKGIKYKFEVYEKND

Question: Which MIC (S. aureus; [1]) does the source give for `COc1cc(-c2cc3nc(N)nc(N)c3cc2C)cc(OC)c1OC` [Compound 33, 6-methyl-7-(3,4,5-trimethoxyphenyl) quinazoline-2,4-diamine] here?
Answer: 1 µg/mL (≈ 2.94 µM)

Question: What about the MIC (S. aureus; [2]) of the same compound?
Answer: ≤ 0.5 µg/mL

Question: What about the Ki (human DHFR) of the same compound?
Answer: 47.1 nM

Question: What about the Ki (S. aurues DHFR) of the same compound?
Answer: 0.91 nM

Question: `Cc1cc2nc(-c3nccs3)n(-c3cc4nc(N)nc(N)c4cc3Cl)c2cc1C` [Compound 34, 6-chloro-7-(5,6-dimethyl-2-(thiazol-2-yl)-1H-benzo[d]imidazol-1-yl)quinazoline-2,4-diamine] was tested. Which “MIC in μg/ml S. aureus” value (S. aureus; S. aureus) did it give?
Answer: ≦0.125 μg/ml

Question: And the “MIC in μg/ml S. aureus in 20% serum” value (S. aureus; S. aureus in 20% serum)?
Answer: 2 µg/mL (≈ 4.74 µM)

Question: And the Ki (human DHFR)?
Answer: 8.8 nM

Question: And the Ki (S. aurues DHFR)?
Answer: 0.016 nM

Question: Which results are given for `COc1cc2nc(-c3nccs3)n(-c3ccc4c(N)nc(N)nc4c3)c2cc1OC` [Compound 35]?
Answer: MIC (S. aureus; [1]): 0.25 µg/mL (≈ 0.596 µM); MIC (S. aureus; [2]): 0.25 µg/mL (≈ 0.596 µM); Ki (human DHFR): 854 nM; Ki (S. aurues DHFR): 0.16 nM

Question: With `Cc1ccc2c(c1)nc(-c1cccs1)n2-c1ccc2c(N)nc(N)nc2c1` [Compound 36] as the compound, how does the MIC (S. aureus; [1]) read?
Answer: 1 µg/mL (≈ 2.68 µM)

Question: And the MIC (S. aureus; [2])?
Answer: 1 µg/mL (≈ 2.68 µM)

Question: And the Ki (human DHFR)?
Answer: 314 nM

Question: What about the Ki (S. aurues DHFR) of the same compound?
Answer: 0.005 nM

Question: How did the MIC (S. aureus; [1]) turn out when `COc1ccc2nc(-c3ccco3)n(-c3ccc4c(N)nc(N)nc4c3)c2n1` [Compound 37] was run?
Answer: 0.5 µg/mL (≈ 1.34 µM)

Question: And the MIC (S. aureus; [2])?
Answer: 0.25 µg/mL (≈ 0.67 µM)

Question: And the Ki (human DHFR)?
Answer: 797 nM

Question: And the Ki (S. aurues DHFR)?
Answer: 0.039 nM

Question: What does the source list for `COc1cnc(Cl)cc1-c1cc2nc(N)nc(N)c2cc1C` [Compound 38, 7-(2-chloro-5-methyloxypyridin-4-yl)-6-methylquinazoline-2,4-diamine]?
Answer: MIC (S. aureus; [1]): 1 µg/mL (≈ 3.17 µM); MIC (S. aureus; [2]): 1 µg/mL (≈ 3.17 µM); Ki (human DHFR): 52.4 nM; Ki (S. aurues DHFR): 1.4 nM

Question: What does the source list for `CCOc1ccc(C(=O)N(CC)CC)cc1-c1cc2nc(N)nc(N)c2cc1C` [Compound 40, 3-(2,4-diamino-6-methylquinazolin-7-yl)-4-ethoxy-N,N-diethylbenzamide]?
Answer: MIC (S. aureus; [1]): 0.25 µg/mL (≈ 0.635 µM); MIC (S. aureus; [2]): 0.25 µg/mL (≈ 0.635 µM); Ki (human DHFR): 34 nM; Ki (S. aurues DHFR): 0.025 nM

Question: For `Cc1cc2c(N)nc(N)nc2cc1-c1c[nH]c2ccccc12` [Compound 41, 7-(1H-indol-3-yl)-6-methylquinazoline-2,4-diamine], which MIC (S. aureus; [1]) is on record?
Answer: 0.5 µg/mL (≈ 1.73 µM)

Question: And the MIC (S. aureus; [2])?
Answer: 0.25 µg/mL (≈ 0.864 µM)

Question: What about the Ki (human DHFR) of the same compound?
Answer: 50.5 nM

Question: And the Ki (S. aurues DHFR)?
Answer: 0.11 nM
